Measured values published in publication PMC8126888 (RSC Medicinal Chemistry, 2020).
Read-outs that look alike come from different tables or passages of the source.

How the values were obtained:
physchem = conditions: HPLC, Ascentis Express RP Amide column, pH 7.4, eLogD, experimental
in vitro [1] = conditions: human, HFF-1 cells
[2] = tested on: primary peritoneal mouse macrophages (PMM); experiment: cells; conditions: Macrophage, read-out: PMM IC50 (uM)
in vitro [3] = conditions: human, HepG2 cells
in vitro [4] = conditions: human, microsomes, pH 7.4, HLM CLint (uL/min/mg), human liver microsomes
[5] = tested on: Leishmania infantum MHOM/MA(BE)/67/ITMAP263 intracellular amastigotes; experiment: microbe, parasite or virus in culture; conditions: Macrophage, in Mus musculus
in vitro [6] = conditions: PAMPA
[7] = tested on: Trypanosoma cruzi, Tulahuen CL2, beta-galactosidase strain; experiment: microbe, parasite or virus in culture; conditions: MRC5, read-out: T. cruzi Tulahuen C4 (LacZ) IC50 (uM)
in vitro [8] = conditions: mouse, microsomes, pH 7.4, MLM CLint (uL/min/mg), mouse liver microsomes
in vitro [9] = conditions: human
[10] = read-out: L. Inf. pIC50, from L. infantum intracellular amastigote IC50 (converted)
[11] = read-out: L. infantum MHOM/MA(BE)/67/ITMAP263 intracellular amastigotes IC50 (uM), intracellular amastigotes

Row | Compound | chromatographic logD (physchem) | CC50 (in vitro [1]) [µM] | IC50 [2] [µM] | CC50 (in vitro [3]) [µM] | microsomal CLint at 0.5 μM (in vitro [4]) [µL/min/mg] | IC50 [5, 10] [µM] | IC50 [5, 11] [µM] | Papp (in vitro [6]) [×10⁻⁶ cm/s] | IC50 [7] [µM] | microsomal CLint at 0.5 μM (in vitro [8]) [µL/min/mg] | CC50 at 3 days (in vitro [9]) [µM]
1 | COc1ccc(C(=O)N(C)CCO)cc1S(=O)(=O)N(Cc1ccc(F)cc1)Cc1ccc(F)cc1 [DNDI0003371175] | 3.8 | 60.2 | > 64 | 57.6 | 498 | 2.09 | 2.08 | 11.2 | 25.3 | 605 | > 64
2 | COc1ccc(S(=O)(=O)N2CCOCC2)cc1C(=O)N(Cc1ccc(F)cc1)Cc1ccc(F)cc1 [DNDI0003389643] | 3.9 | > 64 | > 64 | > 64 | 717 | 17 | 16.9 | 4.14 | 16.6 | 610 | > 64
3 | COc1ccc(C(=O)NCCO)cc1S(=O)(=O)N(Cc1ccc(F)cc1)Cc1ccc(F)cc1 [DNDI0003371176] | 3.8 | > 64 | > 64 | > 64 | 131 | 2.51 | 2.53 | 5.78 | 44.3 | 410 | > 64
4 | CNCCOc1ccc(F)cc1S(=O)(=O)N(Cc1ccc(F)cc1)Cc1ccc(F)cc1 [DNDI0003389318] | 5.3 | 7.25 | 8 | 6.84 | 46 | 2.4 | 2.38 | 0.43 | 5.11 | 84 | 4.22
5 | COc1ccccc1S(=O)(=O)N(Cc1ccccc1)CC(O)c1ccc(F)cc1 (stereo not drawn) [DNDI0003389317] | 4.1 | 10.5 | > 64 | > 64 | 610 | 11.5 | 11.6 | 11.8 | 26.6 | 1240 | 40.7
6 | COc1ccc(CN(Cc2ccc(F)cc2)S(=O)(=O)c2cc(F)ccc2OCCN(C)C)cc1 [DNDI0003378485] | 5 | 1.95 | 8 | 9.1 | 183 | 3.24 | 3.24 | 0.29 | 6.96 | 1080 | 6.43
7 | COc1ccc(C(=O)N2CCOCC2)cc1S(=O)(=O)N(Cc1ccc(F)cc1)Cc1ccc(F)cc1 [DNDI0003371178] | 4 | 46.9 | > 64 | 44.5 | 997 | 1.02 | 1.02 | 9.35 | 50.7 | 984 | > 64
8 | COc1ccc(OC)c(S(=O)(=O)N(Cc2ccc(F)cc2)C2CCOCC2)c1 [DNDI0003388086] | 3.7 | > 64 | > 64 | > 64 | 49 | > 64 | > 64 | 31.9 | 45 | 599 | > 64
9 | COc1ccc(CNC2COC2)cc1S(=O)(=O)N(Cc1ccc(F)cc1)Cc1ccc(F)cc1 [DNDI0003389115] | 4 | 51.7 | > 64 | > 64 | 147 | 1.78 | 1.79 | 3.42 | 14.4 | 384 | 41.7
10 | COc1ccc(C(=O)N2CCN(C)CC2)cc1S(=O)(=O)N(Cc1ccc(F)cc1)Cc1ccc(F)cc1 [DNDI0003371173] | 4.7 | 4.16 | 32 | 49.5 | 585 | 0.537 | 0.54 | 3.23 | 11.1 | 2240 | 25.8
11 | COc1ccc(C(=O)N2CCOCC2)cc1S(=O)(=O)N(C)Cc1ccc(F)cc1 [DNDI0003389126] | 2.7 | > 64 | > 64 | > 64 | 70 | 57.5 | 57 | 16.6 | 41.4 | 94 | > 64
12 | N#Cc1ccc(O)c(S(=O)(=O)N(Cc2ccc(F)cc2)Cc2ccc(F)cc2)c1 [DNDI0003389125] | 3.5 | 7.8 | 45.2 | > 64 | 33 | 30.9 | 30.7 | 13.2 | 16.8 | 366 | 4
13 | COc1ccc(CN2CCC(F)(F)CC2)cc1S(=O)(=O)N(Cc1ccc(F)cc1)Cc1ccc(F)cc1 [DNDI0003389116] | 4.8 | 18.2 | 45.2 | > 64 | 984 | 3.16 | 3.18 | 0.4 | 2.93 | 1760 | > 64
14 | CN(C)c1ncccc1S(=O)(=O)N(Cc1ccc(F)cc1)Cc1ccc(F)cc1 [DNDI0003389117] | 4.6 | 16.7 | > 64 | 56.7 | 728 | 6.03 | 5.99 | 1.18 | 12.6 | 903 | 42.7
15 | COCCNC(=O)c1ccc(OC)c(S(=O)(=O)N(Cc2ccc(F)cc2)Cc2ccc(F)cc2)c1 [DNDI0003371177] | 4.1 | > 64 | > 64 | 54.1 | 407 | 1.02 | 1.03 | 8.63 | 40.4 | 1670 | > 64
16 | COc1ccc(N2CCOCC2)cc1S(=O)(=O)N(Cc1ccc(F)cc1)Cc1ccc(F)cc1 [DNDI0003389118] | 4.3 | 15.2 | > 64 | > 64 | 82 | 0.324 | 0.32 | 2.55 | 7.91 | 488 | > 64
17 | COc1ccc(Cl)cc1S(=O)(=O)N(Cc1ccccc1)CC(O)c1ccc(F)cc1 (stereo not drawn) [DNDI0003389316] | 3.1 | 4.75 | > 64 | 51.5 | 298 | 12 | 12 | 4 | 17.8 | 147 | 23.5
18 | COc1ccc(N2CCN(C)CC2)cc1S(=O)(=O)N(Cc1ccc(F)cc1)Cc1ccc(F)cc1 [DNDI0003389645] | 4.4 | 8.45 | 8 | 26.8 | 152 | 0.398 | 0.4 | 0.71 | 2.8 | 212 | 28.7
